Assays:
[1] = target: T1, 5-hydroxytryptamine receptor 2C (Homo sapiens, UniProt P28335); assay: Displacement of [3H]-Mesulergine from recombinant human 5HT2C receptor expressed in HEKT cell membranes measured after 90 mins by microbeta scintillation counting method
T1 sequence (P28335 whole entry): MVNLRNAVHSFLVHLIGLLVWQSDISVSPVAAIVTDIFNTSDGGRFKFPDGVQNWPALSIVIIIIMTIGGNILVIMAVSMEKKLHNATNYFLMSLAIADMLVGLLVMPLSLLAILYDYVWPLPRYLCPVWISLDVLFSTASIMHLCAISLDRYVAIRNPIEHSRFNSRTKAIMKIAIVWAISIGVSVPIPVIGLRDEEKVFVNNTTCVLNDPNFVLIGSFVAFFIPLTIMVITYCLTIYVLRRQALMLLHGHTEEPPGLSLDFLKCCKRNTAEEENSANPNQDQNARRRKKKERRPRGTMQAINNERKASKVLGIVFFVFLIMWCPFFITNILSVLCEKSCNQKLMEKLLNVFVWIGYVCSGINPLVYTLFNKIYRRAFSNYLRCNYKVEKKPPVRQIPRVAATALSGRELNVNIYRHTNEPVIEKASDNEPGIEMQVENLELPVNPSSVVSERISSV

D(1B) dopamine receptor = D(1B) dopamine receptor (Homo sapiens, UniProt P21918); assay: Displacement of [3H]-SCH23390 from recombinant human D5 receptor transiently expressed in HEKT cell membranes measured after 90 mins by microbeta scintillation counting method
D(3) dopamine receptor = D(3) dopamine receptor (Homo sapiens, UniProt P35462); assay: Displacement of [3H]-N-methylspiperone from recombinant human D3 receptor (unknown origin) measured after 90 mins by microbeta scintillation counting method
D(1A) dopamine receptor = D(1A) dopamine receptor (Homo sapiens, UniProt P21728); assay: Displacement of [3H]-SCH23390 from recombinant human D1 receptor transiently expressed in HEKT cell membranes measured after 90 mins by microbeta scintillation counting method
D(2) dopamine receptor = D(2) dopamine receptor (Homo sapiens, UniProt P14416); assay: Displacement of [3H]-N-methylspiperone from recombinant human D2 receptor stably expressed in fibroblast cell membranes measured after 90 mins by microbeta scintillation counting method
D(4) dopamine receptor = target: T2, D(4) dopamine receptor (Homo sapiens, UniProt P21917); assay: Displacement of [3H]-N-methylspiperone from recombinant human D4 receptor stably expressed in HEK cell membranes measured after 90 mins by microbeta scintillation counting method
T2 sequence (P21917 whole entry): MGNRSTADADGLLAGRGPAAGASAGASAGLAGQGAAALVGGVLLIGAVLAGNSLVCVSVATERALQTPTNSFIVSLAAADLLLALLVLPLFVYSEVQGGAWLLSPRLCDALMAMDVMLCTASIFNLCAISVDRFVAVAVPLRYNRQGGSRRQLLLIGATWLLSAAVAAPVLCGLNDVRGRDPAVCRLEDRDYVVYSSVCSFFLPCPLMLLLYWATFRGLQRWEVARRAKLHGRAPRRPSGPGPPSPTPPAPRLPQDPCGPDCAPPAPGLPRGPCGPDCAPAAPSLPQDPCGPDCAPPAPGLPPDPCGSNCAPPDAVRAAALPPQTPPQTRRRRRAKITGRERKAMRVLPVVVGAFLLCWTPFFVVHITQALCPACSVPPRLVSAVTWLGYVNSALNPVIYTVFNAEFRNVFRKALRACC

Sequence of D(2) dopamine receptor (P14416 whole entry): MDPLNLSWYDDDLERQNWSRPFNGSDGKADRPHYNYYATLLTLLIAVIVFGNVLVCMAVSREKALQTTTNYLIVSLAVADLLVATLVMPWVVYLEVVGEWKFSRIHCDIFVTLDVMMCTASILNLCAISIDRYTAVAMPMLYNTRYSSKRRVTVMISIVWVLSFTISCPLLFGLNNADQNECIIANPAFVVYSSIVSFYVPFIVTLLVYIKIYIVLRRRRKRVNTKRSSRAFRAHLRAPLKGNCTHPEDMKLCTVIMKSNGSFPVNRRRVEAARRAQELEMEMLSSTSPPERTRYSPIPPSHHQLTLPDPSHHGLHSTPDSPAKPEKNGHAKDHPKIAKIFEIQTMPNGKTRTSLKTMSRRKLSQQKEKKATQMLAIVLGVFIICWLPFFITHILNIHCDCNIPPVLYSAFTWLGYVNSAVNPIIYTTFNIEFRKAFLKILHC
Sequence of D(3) dopamine receptor (P35462 whole entry): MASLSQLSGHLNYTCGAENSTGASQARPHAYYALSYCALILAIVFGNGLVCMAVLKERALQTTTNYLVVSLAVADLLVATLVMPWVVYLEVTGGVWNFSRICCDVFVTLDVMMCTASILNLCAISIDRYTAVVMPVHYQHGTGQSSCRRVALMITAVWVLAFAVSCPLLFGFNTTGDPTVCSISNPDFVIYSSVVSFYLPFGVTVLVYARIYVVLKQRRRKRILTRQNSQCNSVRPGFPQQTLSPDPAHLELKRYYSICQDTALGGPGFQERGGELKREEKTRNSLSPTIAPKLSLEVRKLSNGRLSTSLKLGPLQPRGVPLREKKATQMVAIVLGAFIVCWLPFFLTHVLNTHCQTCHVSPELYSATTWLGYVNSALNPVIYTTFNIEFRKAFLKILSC
Sequence of D(1A) dopamine receptor (P21728 whole entry): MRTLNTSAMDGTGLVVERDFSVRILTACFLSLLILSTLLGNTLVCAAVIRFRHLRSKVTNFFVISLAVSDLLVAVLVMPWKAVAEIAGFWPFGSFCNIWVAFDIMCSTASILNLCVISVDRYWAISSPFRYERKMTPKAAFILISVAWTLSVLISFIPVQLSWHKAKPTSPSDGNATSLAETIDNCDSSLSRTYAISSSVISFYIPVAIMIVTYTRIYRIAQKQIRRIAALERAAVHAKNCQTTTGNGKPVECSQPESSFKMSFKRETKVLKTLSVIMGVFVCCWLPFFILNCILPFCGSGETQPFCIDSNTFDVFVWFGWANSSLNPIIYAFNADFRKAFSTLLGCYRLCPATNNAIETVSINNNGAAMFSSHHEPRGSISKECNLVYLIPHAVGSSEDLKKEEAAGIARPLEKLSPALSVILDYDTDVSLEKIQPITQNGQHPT
Sequence of D(1B) dopamine receptor (P21918 whole entry): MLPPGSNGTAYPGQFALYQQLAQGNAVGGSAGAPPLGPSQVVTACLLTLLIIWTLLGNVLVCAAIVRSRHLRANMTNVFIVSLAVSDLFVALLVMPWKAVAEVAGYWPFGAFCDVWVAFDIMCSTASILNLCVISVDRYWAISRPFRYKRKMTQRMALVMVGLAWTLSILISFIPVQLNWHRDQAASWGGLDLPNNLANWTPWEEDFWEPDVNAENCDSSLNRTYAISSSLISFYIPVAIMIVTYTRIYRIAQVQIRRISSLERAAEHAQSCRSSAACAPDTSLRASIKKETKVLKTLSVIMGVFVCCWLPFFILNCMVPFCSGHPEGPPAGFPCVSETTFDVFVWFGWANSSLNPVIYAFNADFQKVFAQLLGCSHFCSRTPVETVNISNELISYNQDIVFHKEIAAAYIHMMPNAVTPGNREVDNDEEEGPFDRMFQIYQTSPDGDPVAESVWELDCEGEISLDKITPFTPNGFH

Row | Compound | Ki [1] [nM] | Ki (D(1B) dopamine receptor) [nM] | Ki (D(3) dopamine receptor) [nM] | Ki (D(1A) dopamine receptor) [nM] | Ki (D(2) dopamine receptor) [nM] | Ki (D(4) dopamine receptor) [nM]
1 | CCCN(CCCCNC(=O)c1ccc(-c2ccccn2)cc1)CC1CC1c1cccc(F)c1 (stereo unspecified) | 1340 | > 5000 | 45.4 | 2910 | > 5000 | 2220
2 | CCOc1ccc(F)cc1C1CC1CN(CC)CCCSc1nnc(-c2ccccc2)n1C (stereo unspecified) | – | 1580 | 55 | 1150 | 380 | 101
3 | CCCN(CCCCNC(=O)c1cc2ccccc2[nH]1)CC1CC1c1cccc(Cl)c1Cl (racemic) | 105 | 3500 | – | 891 | 1500 | 1130
4 | CCN(CCCSc1nnc(-c2ccccc2)n1C)CC1CC1c1cc(F)ccc1OC (stereo unspecified) | – | 1850 | 44 | 1720 | 275 | 30
5 | CCCN(CCCCNC(=O)c1cc2ccccc2[nH]1)CC1CC1c1cccc(F)c1 (stereo unspecified) | 106 | > 5000 | 18.8 | 1100 | 3490 | 671
6 | CCCN(CCCCNC(=O)c1cc2ccccc2[nH]1)CC1CC1c1cccc(Cl)c1 (stereo unspecified) | 132 | > 5000 | 11.1 | 992 | 3490 | 878
7 | CCCN(CCCCNC(=O)c1ccc(-c2ccccn2)cc1)CC1CC1c1cc(Cl)ccc1OC (stereo unspecified) | 136 | > 5000 | 39.4 | > 5000 | 2100 | 1830
8 | COc1ccc(F)cc1C1CC1CN(CCCSc1nnc(-c2ccccc2)n1C)CC1CC1 (stereo unspecified) | 126 | 1200 | 64.6 | 1080 | > 5000 | 292
9 | CCCN(CCCCNC(=O)c1cc2ccccc2[nH]1)CC1CC1c1ccc(Cl)cc1 (stereo unspecified) | 137 | 9290 | 25.7 | 649 | 3160 | 510
10 | CCCN(CCCCNC(=O)c1ccc(-c2ccccn2)cc1)CC1CC1c1ccc(Cl)cc1 (stereo unspecified) | 284 | 8840 | 17.6 | 1310 | > 5000 | 1410
11 | COc1ccc(F)cc1C1CC1CN(C)CCCSc1nnc(-c2ccccc2)n1C (stereo unspecified) | – | 1000 | 84.5 | 794 | 324 | 85.1
12 | CCOc1ccc(F)cc1C1CC1CN(C)CCCSc1nnc(-c2ccccc2)n1C (stereo unspecified) | – | > 5000 | 550 | 1120 | > 5000 | 989
13 | CCN(CCCSc1nnc(-c2ccccc2)n1C)CC1CC1c1cc(F)ccc1OCCF (stereo unspecified) | – | 2000 | 113 | 584 | 845 | 179
14 | CCOc1ccc(F)cc1C1CC1CNCCCSc1nnc(-c2ccccc2)n1C (stereo unspecified) | – | 589 | 219 | 295 | 661 | 501
15 | CCCN(CCCCNC(=O)c1ccc2ccccc2c1)CC1CC1c1cccc(Cl)c1Cl (racemic) | 123 | 4020 | – | 891 | 2100 | 1340
16 | Cn1c(SCCCNCC2CC2c2cc(F)ccc2OCCF)nnc1-c1ccccc1 (stereo unspecified) | – | 1080 | 525 | 369 | 1500 | 962
17 | COc1ccc(F)cc1C1CC1CNCCCSc1nnc(-c2ccccc2)n1C (stereo unspecified) | – | 926 | 89.8 | 631 | 253 | 133
18 | CN(CCCSc1nnc(-c2ccccc2)n1C)CC1CC1c1cc(F)ccc1OCCF (stereo unspecified) | – | 2150 | 562 | 1470 | 2440 | 977
19 | CCCN(CCCCNC(=O)c1ccc(-c2ccccn2)cc1)CC1CC1c1cc(F)ccc1OC (racemic) | 53 | > 5000 | – | 1760 | 3140 | 1140
20 | CCCN(CCCCNC(=O)c1ccc(-c2ccccn2)cc1)CC1CC1c1cccc(Cl)c1Cl (racemic) | 97.7 | > 5000 | – | 1650 | – | 2010

— ChEMBL document CHEMBL4402598, “Design and Synthesis of Bitopic 2-Phenylcyclopropylmethylamine (PCPMA) Derivatives as Selective Dopamine D3 Receptor Ligands” (J Med Chem, 2020)
